Key:
Test in all cases: relative viability (nuclei count vs DMSO), 5 days (fraction); higher = more cells survive
[1] = compound: CN[C@@H]1C[C@H]2O[C@@](C)([C@@H]1OC)n1c3ccccc3c3c4c(c5c6ccccc6n2c5c31)C(=O)NC4 [Staurosporine] + CC(=O)c1c(C)c2cnc(Nc3ccc(N4CCNCC4)cn3)nc2n(C2CCCC2)c1=O [Palbociclib] (partner 0.5 µM)
In short: (§1)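 Relative viability equals treated-well nuclei counts divided by vehicle-well nuclei counts. Counts came from 4× images of lung cancer cell lines grown in 1536-well plates for 5 days after pin-tool dosing on the day after seeding. Dosing used one drug alone or a fixed anchor-drug dose plus five library-drug doses (not always all listed) in √10 steps, and values are medians of duplicate plates.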

[2] = compound: O=c1[nH]cc(F)c(=O)[nH]1 [5-Fluorouracil] + C[C@]1(O)C[C@@H](c2nc(-c3ccc4ccc(-c5ccccc5)nc4c3)c3c(N)nccn32)C1 [Linsitinib] (partner 1 µM)
In short: as §1

[3] = compound: CN[C@@H]1C[C@H]2O[C@@](C)([C@@H]1OC)n1c3ccccc3c3c4c(c5c6ccccc6n2c5c31)C(=O)NC4 [Staurosporine] + O=C(CCCCCCC(=O)Nc1ccccc1)NO [Vorinostat] (partner 1 µM)
In short: as §1

[4] = compound: CN[C@@H]1C[C@H]2O[C@@](C)([C@@H]1OC)n1c3ccccc3c3c4c(c5c6ccccc6n2c5c31)C(=O)NC4 [Staurosporine] + C[C@]1(O)C[C@@H](c2nc(-c3ccc4ccc(-c5ccccc5)nc4c3)c3c(N)nccn32)C1 [Linsitinib] (partner 1 µM)
In short: as §1

With H3255 the relative viability ([1]; first compound 0.005 µM) was 0.275, the relative viability ([1]; first compound 0.01581 µM) was 0.24 and the relative viability ([1]; first compound 0.05 µM) was 0.24. It also gave a relative viability ([1]; first compound 0.1581 µM) of 0.181, a relative viability ([1]; first compound 0.5 µM) of 0.178 and a relative viability ([2]; first compound 0.02 µM) of 0.99. It also gave a relative viability ([2]; first compound 0.2 µM) of 1.07, a relative viability ([2]; first compound 0.6325 µM) of 0.853 and a relative viability ([2]; first compound 2 µM) of 0.579. It also gave a relative viability ([3]; first compound 0.005 µM) of 0.276, a relative viability ([3]; first compound 0.01581 µM) of 0.219 and a relative viability ([3]; first compound 0.05 µM) of 0.384. It also gave a relative viability ([3]; first compound 0.1581 µM) of 0.48, a relative viability ([3]; first compound 0.5 µM) of 0.133 and a relative viability ([4]; first compound 0.005 µM) of 0.814. It also gave a relative viability ([4]; first compound 0.01581 µM) of 0.549, a relative viability ([4]; first compound 0.05 µM) of 0.303 and a relative viability ([4]; first compound 0.1581 µM) of 0.226. It also gave a relative viability ([4]; first compound 0.5 µM) of 0.116.
In the case of NCI-H23, the relative viability ([1]; first compound 0.005 µM) was 0.255, the relative viability ([1]; first compound 0.01581 µM) was 0.253 and the relative viability ([1]; first compound 0.05 µM) was 0.162. It also gave a relative viability ([1]; first compound 0.1581 µM) of 0.147, a relative viability ([1]; first compound 0.5 µM) of 0.131 and a relative viability ([2]; first compound 0.02 µM) of 0.488. The relative viability ([2]; first compound 0.2 µM) was 0.631, the relative viability ([2]; first compound 0.6325 µM) was 0.444 and the relative viability ([2]; first compound 2 µM) was 0.271. For the same cell line, the relative viability ([3]; first compound 0.005 µM) was 0.506, the relative viability ([3]; first compound 0.01581 µM) was 0.0921 and the relative viability ([3]; first compound 0.05 µM) was 0.0962. For the same cell line, the relative viability ([3]; first compound 0.1581 µM) was 0.143, the relative viability ([3]; first compound 0.5 µM) was 0.101 and the relative viability ([4]; first compound 0.005 µM) was 0.419. It also gave a relative viability ([4]; first compound 0.01581 µM) of 0.234, a relative viability ([4]; first compound 0.05 µM) of 0.213 and a relative viability ([4]; first compound 0.1581 µM) of 0.219. The relative viability ([4]; first compound 0.5 µM) was 0.155.
With CAL-12T the relative viability ([1]; first compound 0.005 µM) was 0.196, the relative viability ([1]; first compound 0.01581 µM) was 0.138 and the relative viability ([1]; first compound 0.05 µM) was 0.107. It also gave a relative viability ([1]; first compound 0.1581 µM) of 0.142, a relative viability ([1]; first compound 0.5 µM) of 0.122 and a relative viability ([2]; first compound 0.02 µM) of 0.487. It also gave a relative viability ([2]; first compound 0.2 µM) of 0.87, a relative viability ([2]; first compound 0.6325 µM) of 0.673 and a relative viability ([2]; first compound 2 µM) of 0.412. For the same cell line, the relative viability ([3]; first compound 0.005 µM) was 0.415, the relative viability ([3]; first compound 0.01581 µM) was 0.231 and the relative viability ([3]; first compound 0.05 µM) was 0.165. It also gave a relative viability ([3]; first compound 0.1581 µM) of 0.129, a relative viability ([3]; first compound 0.5 µM) of 0.112 and a relative viability ([4]; first compound 0.005 µM) of 0.57. It also gave a relative viability ([4]; first compound 0.01581 µM) of 0.334, a relative viability ([4]; first compound 0.05 µM) of 0.213 and a relative viability ([4]; first compound 0.1581 µM) of 0.136. For the same cell line, the relative viability ([4]; first compound 0.5 µM) was 0.115.
In the case of A-427, the relative viability ([1]; first compound 0.005 µM) was 0.509, the relative viability ([1]; first compound 0.01581 µM) was 0.425 and the relative viability ([1]; first compound 0.05 µM) was 0.346. For the same cell line, the relative viability ([1]; first compound 0.1581 µM) was 0.246, the relative viability ([1]; first compound 0.5 µM) was 0.193 and the relative viability ([2]; first compound 0.02 µM) was 1.05. The relative viability ([2]; first compound 0.2 µM) was 1.08, the relative viability ([2]; first compound 0.6325 µM) was 1.11 and the relative viability ([2]; first compound 2 µM) was 0.546. The relative viability ([3]; first compound 0.005 µM) was 0.572, the relative viability ([3]; first compound 0.01581 µM) was 0.333 and the relative viability ([3]; first compound 0.05 µM) was 0.43. For the same cell line, the relative viability ([3]; first compound 0.1581 µM) was 0.161, the relative viability ([3]; first compound 0.5 µM) was 0.152 and the relative viability ([4]; first compound 0.005 µM) was 1.05. For the same cell line, the relative viability ([4]; first compound 0.05 µM) was 0.43, the relative viability ([4]; first compound 0.1581 µM) was 0.313 and the relative viability ([4]; first compound 0.5 µM) was 0.189.
HARA gave a relative viability ([1]; first compound 0.005 µM) of 0.268, a relative viability ([1]; first compound 0.01581 µM) of 0.236 and a relative viability ([1]; first compound 0.05 µM) of 0.206. The relative viability ([1]; first compound 0.1581 µM) was 0.177, the relative viability ([1]; first compound 0.5 µM) was 0.118 and the relative viability ([2]; first compound 0.02 µM) was 0.963. For the same cell line, the relative viability ([2]; first compound 0.2 µM) was 1.02, the relative viability ([2]; first compound 0.6325 µM) was 0.885 and the relative viability ([2]; first compound 2 µM) was 0.891. It also gave a relative viability ([3]; first compound 0.005 µM) of 0.511, a relative viability ([3]; first compound 0.01581 µM) of 0.114 and a relative viability ([3]; first compound 0.05 µM) of 0.307. For the same cell line, the relative viability ([3]; first compound 0.1581 µM) was 0.302, the relative viability ([3]; first compound 0.5 µM) was 0.195 and the relative viability ([4]; first compound 0.005 µM) was 0.762. It also gave a relative viability ([4]; first compound 0.01581 µM) of 0.192, a relative viability ([4]; first compound 0.05 µM) of 0.155 and a relative viability ([4]; first compound 0.1581 µM) of 0.0968. It also gave a relative viability ([4]; first compound 0.5 µM) of 0.0872.
Work on NCI-H1793 yielded a relative viability ([1]; first compound 0.005 µM) of 0.446, a relative viability ([1]; first compound 0.05 µM) of 0.314 and a relative viability ([1]; first compound 0.1581 µM) of 0.191. For the same cell line, the relative viability ([1]; first compound 0.5 µM) was 0.166, the relative viability ([2]; first compound 0.02 µM) was 0.691 and the relative viability ([2]; first compound 0.2 µM) was 0.92. For the same cell line, the relative viability ([2]; first compound 0.6325 µM) was 0.815, the relative viability ([2]; first compound 2 µM) was 0.496 and the relative viability ([3]; first compound 0.005 µM) was 0.635. The relative viability ([3]; first compound 0.05 µM) was 0.164, the relative viability ([3]; first compound 0.1581 µM) was 0.11 and the relative viability ([3]; first compound 0.5 µM) was 0.0792. The relative viability ([4]; first compound 0.005 µM) was 0.879, the relative viability ([4]; first compound 0.01581 µM) was 0.558 and the relative viability ([4]; first compound 0.05 µM) was 0.582. For the same cell line, the relative viability ([4]; first compound 0.1581 µM) was 0.465 and the relative viability ([4]; first compound 0.5 µM) was 0.209.
NCI-H2023 showed a relative viability ([1]; first compound 0.005 µM) of 0.234, a relative viability ([1]; first compound 0.01581 µM) of 0.186 and a relative viability ([1]; first compound 0.05 µM) of 0.0972. It also gave a relative viability ([1]; first compound 0.1581 µM) of 0.0704, a relative viability ([1]; first compound 0.5 µM) of 0.0509 and a relative viability ([2]; first compound 0.02 µM) of 0.45. For the same cell line, the relative viability ([2]; first compound 0.2 µM) was 0.242, the relative viability ([2]; first compound 0.6325 µM) was 0.131 and the relative viability ([2]; first compound 2 µM) was 0.0929. It also gave a relative viability ([3]; first compound 0.005 µM) of 0.313, a relative viability ([3]; first compound 0.01581 µM) of 0.14 and a relative viability ([3]; first compound 0.05 µM) of 0.0786. It also gave a relative viability ([3]; first compound 0.1581 µM) of 0.0748, a relative viability ([3]; first compound 0.5 µM) of 0.0408 and a relative viability ([4]; first compound 0.005 µM) of 0.419. The relative viability ([4]; first compound 0.01581 µM) was 0.17, the relative viability ([4]; first compound 0.05 µM) was 0.197 and the relative viability ([4]; first compound 0.1581 µM) was 0.122. It also gave a relative viability ([4]; first compound 0.5 µM) of 0.0751.
Cell Line ABC-1 has a relative viability ([1]; first compound 0.01581 µM) of 0.224, a relative viability ([1]; first compound 0.05 µM) of 0.226 and a relative viability ([1]; first compound 0.1581 µM) of 0.258. The relative viability ([1]; first compound 0.5 µM) was 0.193, the relative viability ([2]; first compound 0.02 µM) was 0.739 and the relative viability ([2]; first compound 0.2 µM) was 0.987. For the same cell line, the relative viability ([2]; first compound 0.6325 µM) was 0.714, the relative viability ([2]; first compound 2 µM) was 0.748 and the relative viability ([3]; first compound 0.005 µM) was 0.667. For the same cell line, the relative viability ([3]; first compound 0.01581 µM) was 0.411, the relative viability ([3]; first compound 0.05 µM) was 0.454 and the relative viability ([3]; first compound 0.1581 µM) was 0.147. It also gave a relative viability ([3]; first compound 0.5 µM) of 0.117, a relative viability ([4]; first compound 0.005 µM) of 0.195 and a relative viability ([4]; first compound 0.01581 µM) of 0.209. For the same cell line, the relative viability ([4]; first compound 0.05 µM) was 0.145, the relative viability ([4]; first compound 0.1581 µM) was 0.108 and the relative viability ([4]; first compound 0.5 µM) was 0.0957.
In the case of IA-LM, the relative viability ([2]; first compound 0.02 µM) was 0.597, the relative viability ([2]; first compound 0.2 µM) was 0.485 and the relative viability ([2]; first compound 0.6325 µM) was 0.175. It also gave a relative viability ([2]; first compound 2 µM) of 0.213, a relative viability ([3]; first compound 0.005 µM) of 0.732 and a relative viability ([3]; first compound 0.01581 µM) of 0.312. For the same cell line, the relative viability ([3]; first compound 0.05 µM) was 0.0781, the relative viability ([3]; first compound 0.1581 µM) was 0.0987 and the relative viability ([3]; first compound 0.5 µM) was 0.105. For the same cell line, the relative viability ([4]; first compound 0.01581 µM) was 0.271, the relative viability ([4]; first compound 0.05 µM) was 0.16 and the relative viability ([4]; first compound 0.1581 µM) was 0.128. For the same cell line, the relative viability ([4]; first compound 0.5 µM) was 0.07.

Reference: the supplement of paper PMC10307832
